Each block holds one molecule with its values, some of them ahead of it.
How the values were obtained:
[1] = target: Substance-P receptor (Homo sapiens) (UniProt P25103); experiment: Agonist activity at recombinant human NK1R at 10 uM by aequorin reporter based assay relative to agonist; assay type: functional
[2] = target: Adenosine receptor A2a (Homo sapiens) (UniProt P29274); experiment: Agonist activity at recombinant human adenosine A2A receptor assessed as induction of cAMP levels at 10 uM by HTRF assay relative to agonist; assay type: functional
[3] = target: T1, Adenosine receptor A1 (Homo sapiens) (UniProt P30542); experiment: Agonist activity at recombinant human adenosine A1 receptor […] at 10 uM by HTRF assay relative to agonist; assay type: functional
T1 sequence (whole entry): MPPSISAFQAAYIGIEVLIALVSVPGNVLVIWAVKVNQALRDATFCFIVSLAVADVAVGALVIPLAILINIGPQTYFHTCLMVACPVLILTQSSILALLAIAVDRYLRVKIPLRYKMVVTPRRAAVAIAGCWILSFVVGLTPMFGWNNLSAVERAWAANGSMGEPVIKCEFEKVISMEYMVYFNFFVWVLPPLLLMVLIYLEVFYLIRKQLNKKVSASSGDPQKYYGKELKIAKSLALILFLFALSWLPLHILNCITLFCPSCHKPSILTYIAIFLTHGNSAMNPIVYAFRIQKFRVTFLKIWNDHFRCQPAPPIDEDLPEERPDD

[4] = target: 5-hydroxytryptamine receptor 6 (Homo sapiens) (UniProt P50406); experiment: Agonist activity at recombinant human 5-HT6R assessed as induction of cAMP levels at 10 uM by HTRF assay relative to agonist; assay type: functional
[5] = target: D(2) dopamine receptor (Homo sapiens) (UniProt P14416); experiment: Antagonist activity at recombinant human dopamine D2L receptor assessed as inhibition of agonist-induced effect at 10 uM by GTPgamma[35S] binding-based assay
[6] = target: D(2) dopamine receptor (Homo sapiens) (UniProt P14416); experiment: Agonist activity at recombinant human dopamine D2L receptor at 10 uM by GTPgamma[35S] binding-based assay relative to agonist
[7] = target: 5-hydroxytryptamine receptor 1B (Homo sapiens) (UniProt P28222); experiment: Agonist activity at recombinant human 5-HT1B at 10 uM by GTPgamma[35S] binding-based assay relative to agonist; assay type: functional
[8] = target: T2, Alpha-1B adrenergic receptor (Homo sapiens) (UniProt P35368); experiment: Agonist activity at recombinant human alpha-1b adrenergic receptor […] at 10 uM by aequorin reporter based assay relative to agonist; assay type: functional
T2 sequence (whole entry): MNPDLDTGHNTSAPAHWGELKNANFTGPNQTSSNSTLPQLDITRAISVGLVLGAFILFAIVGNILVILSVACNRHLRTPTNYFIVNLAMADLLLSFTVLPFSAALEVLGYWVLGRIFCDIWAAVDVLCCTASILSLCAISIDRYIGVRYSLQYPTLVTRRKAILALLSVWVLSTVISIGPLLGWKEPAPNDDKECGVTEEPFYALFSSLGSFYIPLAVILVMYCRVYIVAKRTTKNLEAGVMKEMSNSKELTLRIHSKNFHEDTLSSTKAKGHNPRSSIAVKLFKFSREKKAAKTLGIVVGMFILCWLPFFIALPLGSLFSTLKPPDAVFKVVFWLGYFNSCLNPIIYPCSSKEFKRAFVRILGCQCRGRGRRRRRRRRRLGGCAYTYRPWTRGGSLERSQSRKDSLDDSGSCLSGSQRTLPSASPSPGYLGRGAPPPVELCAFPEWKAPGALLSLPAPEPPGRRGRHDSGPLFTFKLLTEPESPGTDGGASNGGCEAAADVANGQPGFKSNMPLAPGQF

[9] = target: Somatostatin receptor type 4 (Homo sapiens) (UniProt P31391); experiment: Agonist activity at recombinant human somatostatin receptor 4 at 10 uM by GTPgamma[35S] binding-based assay relative to agonist; assay type: functional
[10] = target: Histamine H1 receptor (Homo sapiens) (UniProt P35367); experiment: Antagonist activity at recombinant human histamine H1 receptor assessed as inhibition of agonist-induced effect at 10 uM by aequorin reporter based assay; assay type: functional
[11] = target: D(1A) dopamine receptor (Homo sapiens) (UniProt P21728); experiment: Antagonist activity at recombinant human dopamine D1 receptor assessed as inhibition of agonist-induced cAMP induction at 10 uM by HTRF assay; assay type: functional
[12] = target: T3, Substance-K receptor (Homo sapiens) (UniProt P21452); experiment: Antagonist activity at recombinant human NK2R assessed as inhibition of agonist-induced effect at 10 uM by aequorin reporter based assay; assay type: functional
T3 sequence (whole entry): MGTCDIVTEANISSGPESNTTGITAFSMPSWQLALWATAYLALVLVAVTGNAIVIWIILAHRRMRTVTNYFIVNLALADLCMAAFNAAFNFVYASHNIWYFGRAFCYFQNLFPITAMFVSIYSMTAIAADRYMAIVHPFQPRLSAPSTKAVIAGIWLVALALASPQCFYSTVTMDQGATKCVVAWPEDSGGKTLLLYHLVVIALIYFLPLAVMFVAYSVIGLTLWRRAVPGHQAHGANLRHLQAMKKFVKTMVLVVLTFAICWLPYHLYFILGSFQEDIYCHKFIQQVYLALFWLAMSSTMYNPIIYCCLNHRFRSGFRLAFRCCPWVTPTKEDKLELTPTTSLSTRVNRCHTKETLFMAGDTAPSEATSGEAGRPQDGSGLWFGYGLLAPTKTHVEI

[13] = target: Histamine H2 receptor (Homo sapiens) (UniProt P25021); experiment: Antagonist activity at recombinant human histamine H2 receptor assessed as inhibition of agonist-induced cAMP levels at 10 uM by HTRF assay; assay type: functional
[14] = target: Adenosine receptor A2a (Homo sapiens) (UniProt P29274); experiment: Antagonist activity at recombinant human adenosine A2A receptor assessed as inhibition of agonist-induced cAMP induction at 10 uM by HTRF assay; assay type: functional
[15] = target: 5-hydroxytryptamine receptor 4 (Homo sapiens) (UniProt Q13639); experiment: Agonist activity at recombinant human 5-HT4E assessed as induction of cAMP levels at 10 uM by HTRF assay relative to agonist; assay type: functional
[16] = target: 5-hydroxytryptamine receptor 4 (Homo sapiens) (UniProt Q13639); experiment: Antagonist activity at recombinant human 5-HT4E assessed as inhibition of agonist-induced cAMP levels at 10 uM by HTRF assay; assay type: functional
[17] = target: T4, 5-hydroxytryptamine receptor 1A (Homo sapiens) (UniProt P08908); experiment: Antagonist activity at recombinant human 5-HT1A assessed as inhibition of agonist-induced cAMP levels at 10 uM by HTRF assay; assay type: functional
T4 sequence (whole entry): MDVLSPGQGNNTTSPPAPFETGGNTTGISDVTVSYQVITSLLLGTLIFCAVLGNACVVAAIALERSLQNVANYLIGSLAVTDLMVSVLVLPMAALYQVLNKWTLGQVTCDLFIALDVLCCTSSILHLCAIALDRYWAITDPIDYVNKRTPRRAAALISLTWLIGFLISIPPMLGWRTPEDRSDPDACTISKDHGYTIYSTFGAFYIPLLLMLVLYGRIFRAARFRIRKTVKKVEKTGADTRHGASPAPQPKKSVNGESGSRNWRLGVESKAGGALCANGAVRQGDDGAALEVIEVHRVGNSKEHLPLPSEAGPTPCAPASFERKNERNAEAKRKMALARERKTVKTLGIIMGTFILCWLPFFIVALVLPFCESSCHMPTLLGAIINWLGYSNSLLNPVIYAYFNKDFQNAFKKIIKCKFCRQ

5-hydroxytryptamine receptor 1B (Homo sapiens), sequence (P28222 whole entry): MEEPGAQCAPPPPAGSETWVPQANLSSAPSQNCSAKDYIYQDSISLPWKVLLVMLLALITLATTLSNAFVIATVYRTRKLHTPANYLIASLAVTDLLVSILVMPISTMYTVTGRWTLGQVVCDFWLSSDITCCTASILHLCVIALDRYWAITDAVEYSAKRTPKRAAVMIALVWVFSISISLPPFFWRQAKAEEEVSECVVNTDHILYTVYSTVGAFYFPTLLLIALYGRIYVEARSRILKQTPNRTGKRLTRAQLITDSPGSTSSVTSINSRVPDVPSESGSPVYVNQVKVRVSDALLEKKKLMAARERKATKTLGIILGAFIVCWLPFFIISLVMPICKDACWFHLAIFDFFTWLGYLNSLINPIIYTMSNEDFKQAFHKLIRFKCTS
Histamine H1 receptor (Homo sapiens), sequence (P35367 whole entry): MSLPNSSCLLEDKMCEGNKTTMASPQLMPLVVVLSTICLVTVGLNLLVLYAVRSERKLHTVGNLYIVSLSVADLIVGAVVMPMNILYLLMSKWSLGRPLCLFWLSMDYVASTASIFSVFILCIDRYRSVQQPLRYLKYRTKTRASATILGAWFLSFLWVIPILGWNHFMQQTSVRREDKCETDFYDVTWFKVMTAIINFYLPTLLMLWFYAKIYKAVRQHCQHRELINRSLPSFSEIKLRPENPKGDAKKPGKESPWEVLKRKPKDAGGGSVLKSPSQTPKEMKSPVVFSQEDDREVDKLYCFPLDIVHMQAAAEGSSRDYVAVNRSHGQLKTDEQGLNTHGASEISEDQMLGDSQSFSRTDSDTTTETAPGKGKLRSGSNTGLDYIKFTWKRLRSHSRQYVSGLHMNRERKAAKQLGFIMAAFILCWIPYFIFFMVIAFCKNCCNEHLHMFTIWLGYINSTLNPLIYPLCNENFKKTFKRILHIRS
Histamine H2 receptor (Homo sapiens), sequence (P25021 whole entry): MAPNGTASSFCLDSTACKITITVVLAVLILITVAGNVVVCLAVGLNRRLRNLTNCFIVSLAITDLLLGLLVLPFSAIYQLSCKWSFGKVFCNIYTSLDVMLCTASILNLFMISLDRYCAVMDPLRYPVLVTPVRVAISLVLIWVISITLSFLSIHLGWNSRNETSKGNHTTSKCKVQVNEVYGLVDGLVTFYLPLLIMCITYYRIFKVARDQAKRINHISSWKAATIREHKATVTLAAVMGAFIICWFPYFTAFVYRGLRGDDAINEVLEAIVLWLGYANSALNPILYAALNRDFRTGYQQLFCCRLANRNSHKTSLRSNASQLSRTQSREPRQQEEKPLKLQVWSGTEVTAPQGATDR
Somatostatin receptor type 4 (Homo sapiens), sequence (P31391 whole entry): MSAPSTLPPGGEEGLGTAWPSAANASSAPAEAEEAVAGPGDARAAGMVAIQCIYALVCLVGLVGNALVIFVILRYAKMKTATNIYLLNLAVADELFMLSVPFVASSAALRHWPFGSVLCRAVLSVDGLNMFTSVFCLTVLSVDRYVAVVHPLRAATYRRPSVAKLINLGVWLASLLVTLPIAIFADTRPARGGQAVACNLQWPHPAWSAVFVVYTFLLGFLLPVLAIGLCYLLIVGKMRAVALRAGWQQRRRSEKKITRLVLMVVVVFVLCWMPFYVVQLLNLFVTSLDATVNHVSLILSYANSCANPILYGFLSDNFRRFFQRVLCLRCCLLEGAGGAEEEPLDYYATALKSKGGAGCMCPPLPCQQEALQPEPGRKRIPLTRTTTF
Adenosine receptor A2a (Homo sapiens), sequence (P29274 whole entry): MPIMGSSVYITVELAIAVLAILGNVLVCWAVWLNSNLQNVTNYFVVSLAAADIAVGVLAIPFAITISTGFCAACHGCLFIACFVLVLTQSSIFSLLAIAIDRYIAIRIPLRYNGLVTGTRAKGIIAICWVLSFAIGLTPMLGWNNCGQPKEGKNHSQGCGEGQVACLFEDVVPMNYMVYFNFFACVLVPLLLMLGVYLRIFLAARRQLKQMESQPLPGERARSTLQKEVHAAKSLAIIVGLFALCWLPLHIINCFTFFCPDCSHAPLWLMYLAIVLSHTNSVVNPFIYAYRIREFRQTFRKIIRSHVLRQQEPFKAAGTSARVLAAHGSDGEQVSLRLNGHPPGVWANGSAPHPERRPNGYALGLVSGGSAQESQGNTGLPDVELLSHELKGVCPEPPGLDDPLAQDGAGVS
Substance-P receptor (Homo sapiens), sequence (P25103 whole entry): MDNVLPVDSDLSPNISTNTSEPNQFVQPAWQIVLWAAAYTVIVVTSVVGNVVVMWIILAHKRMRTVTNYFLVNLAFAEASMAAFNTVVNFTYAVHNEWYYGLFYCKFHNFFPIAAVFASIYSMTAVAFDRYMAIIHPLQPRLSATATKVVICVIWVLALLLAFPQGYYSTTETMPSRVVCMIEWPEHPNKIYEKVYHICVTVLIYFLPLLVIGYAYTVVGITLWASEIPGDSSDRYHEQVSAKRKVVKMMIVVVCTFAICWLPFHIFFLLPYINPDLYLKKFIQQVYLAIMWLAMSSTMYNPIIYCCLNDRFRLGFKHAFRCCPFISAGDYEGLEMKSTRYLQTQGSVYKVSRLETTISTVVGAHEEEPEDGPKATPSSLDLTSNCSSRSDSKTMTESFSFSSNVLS
5-hydroxytryptamine receptor 4 (Homo sapiens), sequence (Q13639 whole entry): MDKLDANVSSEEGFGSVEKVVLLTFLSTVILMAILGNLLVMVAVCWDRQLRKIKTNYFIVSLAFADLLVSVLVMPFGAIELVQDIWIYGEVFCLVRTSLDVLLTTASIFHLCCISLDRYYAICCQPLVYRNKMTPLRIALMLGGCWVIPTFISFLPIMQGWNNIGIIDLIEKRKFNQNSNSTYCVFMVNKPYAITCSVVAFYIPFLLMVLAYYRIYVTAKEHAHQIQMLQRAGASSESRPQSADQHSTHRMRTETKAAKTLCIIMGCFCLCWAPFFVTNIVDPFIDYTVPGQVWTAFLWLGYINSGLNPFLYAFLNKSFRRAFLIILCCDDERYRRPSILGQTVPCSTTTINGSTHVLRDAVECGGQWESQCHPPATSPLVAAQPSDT
D(2) dopamine receptor (Homo sapiens), sequence (P14416 whole entry): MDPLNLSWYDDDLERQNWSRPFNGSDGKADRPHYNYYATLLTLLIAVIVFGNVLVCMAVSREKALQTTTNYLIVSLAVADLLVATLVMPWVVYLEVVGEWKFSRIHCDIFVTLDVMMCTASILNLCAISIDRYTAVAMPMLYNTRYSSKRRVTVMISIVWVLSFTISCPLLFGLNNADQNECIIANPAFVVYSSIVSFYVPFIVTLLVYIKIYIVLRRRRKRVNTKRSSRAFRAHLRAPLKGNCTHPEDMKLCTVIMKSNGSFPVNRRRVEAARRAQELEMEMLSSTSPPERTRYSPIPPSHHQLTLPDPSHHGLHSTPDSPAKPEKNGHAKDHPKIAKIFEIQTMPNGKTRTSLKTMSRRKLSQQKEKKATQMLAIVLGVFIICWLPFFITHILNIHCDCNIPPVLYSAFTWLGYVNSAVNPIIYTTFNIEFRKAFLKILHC
5-hydroxytryptamine receptor 6 (Homo sapiens), sequence (P50406 whole entry): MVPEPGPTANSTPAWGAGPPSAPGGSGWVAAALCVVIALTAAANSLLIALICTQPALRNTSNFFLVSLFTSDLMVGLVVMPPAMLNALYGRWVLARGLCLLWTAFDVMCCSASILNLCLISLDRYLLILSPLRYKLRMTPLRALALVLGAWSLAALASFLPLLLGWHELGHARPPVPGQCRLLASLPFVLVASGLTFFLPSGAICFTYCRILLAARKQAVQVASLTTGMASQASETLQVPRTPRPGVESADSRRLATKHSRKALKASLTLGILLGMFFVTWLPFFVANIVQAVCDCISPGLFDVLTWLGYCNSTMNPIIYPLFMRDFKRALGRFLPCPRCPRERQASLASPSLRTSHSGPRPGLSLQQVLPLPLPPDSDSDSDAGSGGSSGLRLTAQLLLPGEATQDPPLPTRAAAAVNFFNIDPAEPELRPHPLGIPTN
D(1A) dopamine receptor (Homo sapiens), sequence (P21728 whole entry): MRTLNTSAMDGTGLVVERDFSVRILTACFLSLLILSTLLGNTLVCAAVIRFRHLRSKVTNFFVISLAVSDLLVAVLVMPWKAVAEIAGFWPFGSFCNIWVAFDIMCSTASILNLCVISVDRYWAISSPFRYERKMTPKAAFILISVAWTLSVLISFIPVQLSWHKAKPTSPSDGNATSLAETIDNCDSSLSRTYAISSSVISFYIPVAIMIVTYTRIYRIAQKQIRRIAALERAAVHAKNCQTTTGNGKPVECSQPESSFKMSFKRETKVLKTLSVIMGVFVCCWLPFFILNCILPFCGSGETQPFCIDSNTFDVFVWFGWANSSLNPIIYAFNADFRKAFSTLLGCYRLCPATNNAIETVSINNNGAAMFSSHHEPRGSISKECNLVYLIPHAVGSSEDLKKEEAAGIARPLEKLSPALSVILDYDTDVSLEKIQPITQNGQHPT

Structure (SMILES): CN(CCCNC(=O)c1cccc(Br)c1)Cc1ccccc1
Activity [1]: 0% | Activity [2]: -25% | Activity [3]: -12% | Activity [4]: 32% | inhibition [5]: 49% | Activity [6]: -2% | Activity [7]: 1% | Activity [8]: -1% | Activity [9]: -2% | inhibition [10]: 74% | inhibition [11]: 1% | inhibition [12]: 9% | inhibition [13]: 9% | inhibition [14]: -2% | Activity [15]: -1% | inhibition [16]: -2% | inhibition [17]: 7%

Structure (SMILES): COc1cccc(C(=O)NCCCN(C)Cc2ccccc2)c1
Activity [1]: 0% | Activity [2]: 5% | Activity [3]: -6% | Activity [4]: -2% | inhibition [5]: 22% | Activity [6]: 16% | Activity [7]: -12% | Activity [8]: 0% | Activity [9]: -4% | inhibition [10]: 57% | inhibition [11]: 0% | inhibition [12]: 19% | inhibition [13]: 16% | inhibition [14]: -10% | Activity [15]: -12% | inhibition [16]: 12% | inhibition [17]: 18%

Structure (SMILES): CN(CCNC(=O)c1ccc(Cl)cc1)Cc1ccccc1
Activity [1]: 0% | Activity [2]: -22% | Activity [3]: -11% | Activity [4]: 27% | inhibition [5]: 90% | Activity [6]: -2% | Activity [7]: 4% | Activity [8]: -1% | Activity [9]: 1% | inhibition [10]: 32% | inhibition [11]: 1% | inhibition [12]: 6% | inhibition [13]: 13% | inhibition [14]: -4% | Activity [15]: -5% | inhibition [16]: -3% | inhibition [17]: 3%

Structure (SMILES): CN(CCCNC(=O)c1ccc(C(F)(F)F)cc1)Cc1ccccc1
Activity [1]: 0% | Activity [2]: -22% | Activity [3]: -4% | Activity [4]: 28% | inhibition [5]: 30% | Activity [6]: 25% | Activity [7]: -1% | Activity [8]: -1% | Activity [9]: -5% | inhibition [10]: 24% | inhibition [11]: 9% | inhibition [12]: 6% | inhibition [13]: 6% | inhibition [14]: -1% | Activity [15]: 8% | inhibition [16]: -9% | inhibition [17]: 1%

Structure (SMILES): COc1ccc(C(=O)NCCCN(C)Cc2ccccc2)cc1
Activity [1]: 0% | Activity [2]: -13% | Activity [3]: -3% | Activity [4]: -4% | inhibition [5]: 13% | Activity [6]: -14% | Activity [7]: 7% | Activity [8]: 0% | Activity [9]: -3% | inhibition [10]: 12% | inhibition [11]: -2% | inhibition [12]: 22% | inhibition [13]: 15% | inhibition [14]: -7% | Activity [15]: -13% | inhibition [16]: 8% | inhibition [17]: 5%

Next, values leading:

Activity [1]: 0% | Activity [2]: -6% | Activity [3]: -13% | Activity [4]: 16% | inhibition [5]: 36% | Activity [6]: 25% | Activity [7]: 1% | Activity [8]: 0% | Activity [9]: 15% | inhibition [10]: 90% | inhibition [11]: 35% | inhibition [12]: 5% | inhibition [13]: 4% | inhibition [14]: -5% | Activity [15]: -3% | inhibition [16]: 4% | inhibition [17]: 17%
Structure (SMILES): CN(CCCNC(=O)c1ccc(Cl)cc1)CCc1ccccc1

Activity [1]: 0% | Activity [2]: -8% | Activity [3]: 1% | Activity [4]: -9% | inhibition [5]: 55% | Activity [6]: -23% | Activity [7]: -12% | Activity [8]: 0% | Activity [9]: -1% | inhibition [10]: 35% | inhibition [11]: 0% | inhibition [12]: 29% | inhibition [13]: 25% | inhibition [14]: -7% | Activity [15]: -7% | inhibition [16]: -2% | inhibition [17]: 16%
Structure (SMILES): CN(CCNC(=O)c1ccc(C#N)cc1)Cc1ccccc1

Activity [1]: 0% | Activity [2]: -12% | Activity [3]: 0% | Activity [4]: -4% | inhibition [5]: 30% | Activity [6]: -15% | Activity [7]: -10% | Activity [8]: 0% | Activity [9]: -1% | inhibition [10]: 26% | inhibition [11]: 3% | inhibition [12]: 15% | inhibition [13]: 21% | inhibition [14]: -5% | Activity [15]: -5% | inhibition [16]: 2% | inhibition [17]: 20%
Structure (SMILES): CN(CCNC(=O)c1ccc([N+](=O)[O-])cc1)Cc1ccccc1

Activity [1]: 0% | Activity [2]: -7% | Activity [3]: -8% | Activity [4]: 4% | inhibition [5]: 31% | Activity [6]: -1% | Activity [7]: 10% | Activity [8]: 0% | Activity [9]: -4% | inhibition [10]: 28% | inhibition [11]: 3% | inhibition [12]: 7% | inhibition [13]: 6% | inhibition [14]: -3% | Activity [15]: -7% | inhibition [16]: -5% | inhibition [17]: -5%
Structure (SMILES): CN(CCCNC(=O)c1ccc(Br)cc1)Cc1ccccc1

Activity [1]: 0% | Activity [2]: -3% | Activity [3]: -3% | Activity [4]: 14% | inhibition [5]: 44% | Activity [6]: -3% | Activity [7]: 7% | Activity [8]: 0% | Activity [9]: -6% | inhibition [10]: 34% | inhibition [11]: 4% | inhibition [12]: 18% | inhibition [13]: 7% | inhibition [14]: -4% | Activity [15]: -9% | inhibition [16]: -4% | inhibition [17]: -1%
Structure (SMILES): CN(CCCNC(=O)c1ccc(Cl)cc1)Cc1ccccc1

Activity [1]: 0% | Activity [2]: -19% | Activity [3]: -3% | Activity [4]: 35% | inhibition [5]: 22% | Activity [6]: 4% | Activity [7]: 55% | Activity [8]: -1% | Activity [9]: -1% | inhibition [10]: 25% | inhibition [11]: 6% | inhibition [12]: 5% | inhibition [13]: 8% | inhibition [14]: -3% | Activity [15]: -6% | inhibition [16]: 0% | inhibition [17]: -6%
Structure (SMILES): CCCc1ccc(C(=O)NCCCN(C)Cc2ccccc2)cc1
